In patent publication US20150141506A1, “INDANE DIMERS FOR USE IN THE TREATMENT OF AUTOIMMUNE INFLAMMATORY DISEASE” (Venantius Limited, priority 2012, published 2015):

System: IL2 release from Jurkat cells
Assay: Effect of compounds on IL-2 secretion in T lymphocytes (Jurkat 6.1, anti-CD3/anti-CD28 stimulated, ELISA)
Assay type: cell-based
Conditions: for IL-2 production, absolute values: 30 min pre-treatment, DMSO control 320.67 (plate 2), 338.25 (plate 3); for IL-2 production, absolute values / activity at 1 µM / activity at 10 µM: 24 h; for activity at 1 µM / activity at 10 µM: Homo sapiens, Jurkat, read-out: IL2 release as percentage of anti-CD3/CD28 stimulated release in presence of DMSO, Mean; for effect on IL2 release, in words: 1 and 10 μM
Procedure: The T cell line Jurkat 6.1 (ATCC) was used. Cells were pre-treated for 30 min with 1 μM or 10 μM of the respective compound and then stimulated with plate-bound anti-CD3 (BD Pharmingen) and anti-CD28 (AnCell). DMSO was used as vehicle control. […] After 24 hs the supernatant was collected and IL-2 secretion was measured by ELISA.
Compounds were prepared by dissolution in DMSO to yield final concentrations of 1 and 10 μg/ml

| Compound | IL-2 production, absolute values (compound 1 uM) [pg/mL] | activity at 1 µM [%] | activity at 10 µM [%] | IL-2 production, absolute values (compound 10 uM) [pg/mL] | effect on IL2 release, in words |
| --- | --- | --- | --- | --- | --- |
| COC(=O)c1ccc(C[C@@]2(C3=Cc4ccccc4C3)Cc3ccccc3[C@H]2O)cc1 [Compound 17, methyl 4-(((1S,2S)-1-hydroxy-2,3-dihydro-1H,1′H-[2,2′-biinden]-2-yl)methyl)benzoate] | 168.44 | – | – | – | – |
| COC(=O)c1ccc(C[C@@]2(C3=Cc4ccccc4C3)Cc3ccccc3[C@H]2OC(=O)[C@@H](N)CC(C)C)cc1 [Compound 39, methyl 4-(((1S,2S)-1-(((S)-2-amino-4-methylpentanoyl)oxy)-2,3-dihydro-1H,1′H-[2,2′-biinden]-2-yl)methyl)benzoate] | 105.94 | 73.7 | 21.7 | 40.69 | – |
| NC(=O)c1ccc(C[C@@]2(C3=Cc4ccccc4C3)Cc3ccccc3[C@H]2O)cc1 [Compound 20, 4-{[(1′S,2′S)-1′-hydroxy-1′,3′-dihydro-1H,2′H-2,2′-biinden-2′-yl]methyl}benzamide] | 174.11 | – | – | 141.78 | – |
| CC[C@H](C)[C@H](N)C(=O)O[C@H]1c2ccccc2C[C@]1(Cc1ccc(C(=O)O)cc1)C1=Cc2ccccc2C1 [Compound 26, 4-{[(1′R,2′R)-1′-(L-isoleucyloxy)-1′,3′-dihydro-1H,2′H-2,2′-biinden-2′yl]methyl}benzoic acid] | 202.25 | – | – | 192.63 | – |
| CC(C)C[C@H](N)C(=O)O[C@H]1c2ccccc2C[C@]1(Cc1ccc(C(N)=O)cc1)C1=Cc2ccccc2C1 [Compound 35, (1R,2R)-2-(4-carbamoylbenzyl)-2,3-dihydro-1H,1′H-2,2′-biinden-1-yl L-leucinate] | 238.88 | 149 | 95.5 | 189.38 | inactive |
| CC[C@H](C)[C@H](N)C(=O)O[C@@H]1c2ccccc2C[C@@]1(Cc1ccc(C(=O)O)cc1)C1=Cc2ccccc2C1 [Compound 30, 4-{[(1′S,2′S)-1′-(L-isoleucyloxy)-1′,3′-dihydro-1H,2′H-2,2′-biinden-2′-yl]methyl}benzoic acid] | 191.63 | – | – | 174.50 | – |
| CC(C)C[C@H](N)C(=O)O[C@H]1c2ccccc2C[C@]1(Cc1ccc(C(=O)O)cc1)C1=Cc2ccccc2C1 [Compound 24, 4-{[(1′R,2′R)-1′-(L-leucyloxy)-1′,3′-dihydro-1H,2′H-2,2′-biinden-2′-yl]methyl}benzoic acid] | 202.13 | – | – | 149.63 | – |
| CNC(=O)c1ccc(C[C@]2(C3=Cc4ccccc4C3)Cc3ccccc3[C@@H]2OC(=O)[C@@H](N)CC(C)C)cc1 [Compound 37, (1R,2R)-2-[4-(methylcarbamoyl)benzyl]-2,3-dihydro-1H,1′H-2,2′-biinden-1-yl L-leucinate] | 275.50 | 99.2 | 50.2 | 79.00 | – |
| COC(=O)c1ccc(C[C@]2(C3=Cc4ccccc4C3)Cc3ccccc3[C@@H]2O)cc1 [Compound 10, methyl 4-(((1R,2R)-1-hydroxy-2,3-dihydro-1H,1′H-[2,2′-biinden]-2-yl)methyl)benzoate] | 185.56 | – | – | – | – |
| CCCOC(=O)c1ccc(C[C@@]2(C3=Cc4ccccc4C3)Cc3ccccc3[C@H]2OC(=O)[C@@H](N)CC(C)C)cc1 [Compound 41, propyl 4-(((1S,2S)-1-(((S)-2-amino-4-methylpentanoyl)oxy)-2,3-dihydro-1H, 1′H-[2,2′-biinden]-2-yl)methyl)benzoate] | 99.50 | 77 | 42.1 | 62.50 | – |
| CNC(=O)c1ccc(C[C@@]2(C3=Cc4ccccc4C3)Cc3ccccc3[C@H]2O)cc1 [Compound 22, 4-{[(1′S,2′S)-1′-hydroxy-1′,3′-dihydro-1H,2′H-2,2′-biinden-2′-yl]methyl}-N-methylbenzamide] | 198.56 | – | – | 113.33 | – |
| CC(C)[C@H](N)C(=O)O[C@@H]1c2ccccc2C[C@@]1(Cc1ccc(C(=O)O)cc1)C1=Cc2ccccc2C1 [Compound 29, 4-{[(1′S,2′S)-1′-(L-valyloxy)-1′,3′-dihydro-1H,2′H-2,2′-biinden-2′-yl]methyl}benzoic acid] | 220.50 | – | – | 177.88 | – |
| O=C(NCCO)c1ccc(C[C@]2(C3=Cc4ccccc4C3)Cc3ccccc3[C@@H]2O)cc1 [Compound 14, 4-{[(1′R,2′R)-1′-hydroxy-1′,3′-dihydro-1H,2′H-2,2′-biinden-2′-yl]methyl}-N-(2-hydroxyethyl)benzamide] | 214.44 | – | – | 146.44 | – |
| O=C(NCCO)c1ccc(C[C@@]2(C3=Cc4ccccc4C3)Cc3ccccc3[C@H]2O)cc1 [Compound 21, 4-{[(1′S,2′S)-1′-hydroxy-1′,3′-dihydro-1H,2′H-2,2′-biinden-2′-yl]methyl}-N-(2-hydroxyethyl)benzamide] | 210.89 | – | – | 137.78 | – |
| CC(C)[C@H](N)C(=O)O[C@H]1c2ccccc2C[C@]1(Cc1ccc(C(=O)O)cc1)C1=Cc2ccccc2C1 [Compound 25, 4-{[(1′R,2′R)-1′-(L-valyloxy)-1′,3′-dihydro-1H,2′H-2,2′-biinden-2′-yl]methyl}benzoic acid] | 208.38 | – | – | 174.25 | – |
| CCOC(=O)c1ccc(C[C@]2(C3=Cc4ccccc4C3)Cc3ccccc3[C@@H]2O)cc1 [Compound 11, ethyl 4-(((1R,2R)-1-hydroxy-2,3-dihydro-1H,1′H-[2,2′-biinden]-2-yl)methyl)benzoate] | 272.22 | – | – | 105.11 | – |
| NC(=O)c1ccc(C[C@]2(C3=Cc4ccccc4C3)Cc3ccccc3[C@@H]2O)cc1 [Compound 13, 4-{[(1′R,2′R)-1′-hydroxy-1′,3′-dihydro-1H,2′H-2,2′-biinden-2′-yl]methyl}benzamide] | 276.78 | – | – | 151.78 | – |
| COC(=O)c1ccc(C[C@]2(C3=Cc4ccccc4C3)Cc3ccccc3[C@@H]2OC(=O)[C@@H](N)CC(C)C)cc1 [Compound 32, methyl 4-(((1R,2R)-1-(((S)-2-amino-4-methylpentanoyl)oxy)-2,3-dihydro-1H,1′H-[2,2′-biinden]-2-yl)methyl)benzoate] | 215.25 | 86.2 | 40.8 | 74.88 | – |
| CN(C)C(=O)c1ccc(C[C@]2(C3=Cc4ccccc4C3)Cc3ccccc3[C@@H]2O)cc1 [Compound 16, 4-{[(1′R,2′R)-1′-hydroxy-1′,3′-dihydro-1H,2′H-2,2′-biinden-2′-yl]methyl}-N,N-dimethylbenzamide] | 243.00 | – | – | 171.78 | – |
| CC(C)C[C@H](N)C(=O)O[C@@H]1c2ccccc2C[C@@]1(Cc1ccc(C(=O)N(C)C)cc1)C1=Cc2ccccc2C1 [Compound 45, (1S,2S)-2-[4-(dimethylcarbamoyl)benzyl]-2,3-dihydro-1H,1′H-2,2′-biinden-1-yl L-leucinate] | 56.07 | 51.5 | 1.5 | 14.29 | greatest inhibition of IL2 release |
| CCOC(=O)c1ccc(C[C@@]2(C3=Cc4ccccc4C3)Cc3ccccc3[C@H]2O)cc1 [Compound 18, ethyl 4-(((1S,2S)-1-hydroxy-2,3-dihydro-1H,1′H-[2,2′-biinden]-2-yl)methyl)benzoate] | 190.78 | – | – | 79.56 | – |
| CNC(=O)c1ccc(C[C@@]2(C3=Cc4ccccc4C3)Cc3ccccc3[C@H]2OC(=O)[C@@H](N)CC(C)C)cc1 [Compound 44, (1S,2S)-2-[4-(methylcarbamoyl)benzyl]-2,3-dihydro-1H,1′H-2,2′-biinden-1-yl L-leucinate] | 72.50 | 76.2 | 21 | 12.43 | – |
